In ChEMBL document CHEMBL1201862, “PubChem BioAssay data set” (2004):
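Cultured in 96-well plates, cells were exposed to test compound for 48 hours across five concentrations. The concentration for 50% growth inhibition is given as GI50.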 Active and inactive are the calls of the source. Rule as the data show it: active = GI50 up to about 1.1 µM and inactive = higher.

Legend:
Experiment in all cases: NCI anticancer screen, dose series, 48 h
786-0 = test system: 786-0
CAKI-1 = test system: CAKI-1
MCF7 = test system: MCF7
SK-MEL-28 = test system: SK-MEL-28
SK-OV-3 = test system: SK-OV-3
HOP-92 = test system: HOP-92
NCI-H522 = test system: NCI-H522
NCI/ADR-RES = test system: NCI/ADR-RES
TK-10 = test system: TK-10
A498 = test system: A498
MDA-N = test system: MDA-N
SK-MEL-2 = test system: SK-MEL-2
UO-31 = test system: UO-31
T47D = test system: T47D
M14 = test system: M14
OVCAR-5 = test system: OVCAR-5
ACHN = test system: ACHN
OVCAR-3 = test system: OVCAR-3
HL-60 = test system: HL-60
RPMI-8226 = test system: RPMI-8226

Structure (SMILES) | GI50 (786-0) | GI50 (CAKI-1) | GI50 (MCF7) | GI50 (SK-MEL-28) | GI50 (SK-OV-3) | GI50 (HOP-92) | GI50 (NCI-H522) | GI50 (NCI/ADR-RES) | GI50 (TK-10) | GI50 (A498) | GI50 (MDA-N) | GI50 (SK-MEL-2) | GI50 (UO-31) | GI50 (T47D) | GI50 (M14) | GI50 (OVCAR-5) | GI50 (ACHN) | GI50 (OVCAR-3) | GI50 (HL-60) | GI50 (RPMI-8226)
CN(C)CCn1c(=O)c2ccc3c4c(nn3CCN(C)C)c3ccccc3n(c1=O)c24 | < 0.121 µM (active) | 0.0608 µM (active) | 0.188 µM (active) | 1.85 µM (inactive) | 0.412 µM (active) | 1.87 µM (inactive) | < 0.0219 µM (active) | 0.368 µM (active) | 0.578 µM (active) | 0.301 µM (active) | 0.248 µM (active) | 0.423 µM (active) | 0.271 µM (active) | 0.524 µM (active) | 0.411 µM (active) | 0.485 µM (active) | < 0.129 µM (active) | 0.431 µM (active) | 0.598 µM (active) | –
CCOC(=O)C1=CNC2=N[C@H]3CCCC[C@@H]3N2C1=O | > 100 µM (inactive) | > 100 µM (inactive) | > 100 µM (inactive) | > 100 µM (inactive) | > 100 µM (inactive) | > 100 µM (inactive) | > 100 µM (inactive) | > 100 µM (inactive) | – | > 100 µM (inactive) | > 100 µM (inactive) | > 100 µM (inactive) | > 100 µM (inactive) | > 100 µM (inactive) | > 100 µM (inactive) | > 100 µM (inactive) | > 100 µM (inactive) | > 100 µM (inactive) | > 100 µM (inactive) | > 100 µM (inactive)
CC(C)(C)OC(=O)N1CCc2c(n(C/C=C/c3ccccc3)[nH]c2=O)C1 | > 100 µM (inactive) | > 100 µM (inactive) | 65.3 µM (inactive) | > 100 µM (inactive) | > 100 µM (inactive) | > 53.5 µM (inactive) | > 51.2 µM (inactive) | 26.2 µM (inactive) | > 81.3 µM (inactive) | > 100 µM (inactive) | > 100 µM (inactive) | > 100 µM (inactive) | 61.2 µM (inactive) | 46.7 µM (inactive) | > 100 µM (inactive) | – | > 100 µM (inactive) | > 100 µM (inactive) | 27.8 µM (inactive) | 95.5 µM (inactive)
COc1cc2c(c(O)c1OC)C(O)C1CCC(=O)N1C2c1cccc2ccccc12 (centres undefined) | > 100 µM (inactive) | > 100 µM (inactive) | > 100 µM (inactive) | > 100 µM (inactive) | 56.1 µM (inactive) | > 100 µM (inactive) | 27.7 µM (inactive) | 54.6 µM (inactive) | – | > 100 µM (inactive) | 76.4 µM (inactive) | > 100 µM (inactive) | 91.8 µM (inactive) | > 100 µM (inactive) | > 100 µM (inactive) | > 100 µM (inactive) | 82.2 µM (inactive) | > 100 µM (inactive) | > 100 µM (inactive) | > 100 µM (inactive)
O=C(C/C(=N/O)C(=O)NC1=C(Cl)C(=O)c2ccccc2C1=O)CC(c1ccccc1)c1c(O)c2ccccc2oc1=O (centres undefined) | 10.4 µM (inactive) | 17.3 µM (inactive) | 6.85 µM (inactive) | 7.43 µM (inactive) | 39 µM (inactive) | 22.3 µM (inactive) | 13.2 µM (inactive) | 11.2 µM (inactive) | – | 46.6 µM (inactive) | 1.72 µM (inactive) | 10.6 µM (inactive) | 14.9 µM (inactive) | 12.1 µM (inactive) | 4.59 µM (inactive) | 17.7 µM (inactive) | 19.8 µM (inactive) | 3.88 µM (inactive) | 2.39 µM (inactive) | 19.1 µM (inactive)
CCN(CC)CCNc1nc(N)c(C#N)c(C#N)c1C#N | > 10 µM (inactive) | > 10 µM (inactive) | > 10 µM (inactive) | > 10 µM (inactive) | > 10 µM (inactive) | > 10 µM (inactive) | > 10 µM (inactive) | > 10 µM (inactive) | > 10 µM (inactive) | > 10 µM (inactive) | > 10 µM (inactive) | – | > 10 µM (inactive) | > 10 µM (inactive) | > 10 µM (inactive) | > 10 µM (inactive) | > 10 µM (inactive) | > 10 µM (inactive) | > 10 µM (inactive) | > 10 µM (inactive)
